Earlier results, collected in patent publication US20230149377A1, “PHARMACEUTICAL METHODS” (ELEVAR THERAPEUTICS, INC., priority 2018, published 2023).
Where a name gives a salt, the structure may show the parent alone.

What was measured:
[1] = observed safety issues, approved drugs
[2] = Phase 1, 46 patients
[3] = single dose
[4] = molecular target: VEGFR-2 (Homo sapiens, UniProt P35968); conditions: nonclinical
[5] = test system: tumor bearing animal models
[6] = 81 mg rivoceranib dose (100 mg mesylate), healthy volunteers
[7] = test system: gastric cancer; conditions: Phase 3

VEGFR-2, sequence (P35968 20-1356, species assumed): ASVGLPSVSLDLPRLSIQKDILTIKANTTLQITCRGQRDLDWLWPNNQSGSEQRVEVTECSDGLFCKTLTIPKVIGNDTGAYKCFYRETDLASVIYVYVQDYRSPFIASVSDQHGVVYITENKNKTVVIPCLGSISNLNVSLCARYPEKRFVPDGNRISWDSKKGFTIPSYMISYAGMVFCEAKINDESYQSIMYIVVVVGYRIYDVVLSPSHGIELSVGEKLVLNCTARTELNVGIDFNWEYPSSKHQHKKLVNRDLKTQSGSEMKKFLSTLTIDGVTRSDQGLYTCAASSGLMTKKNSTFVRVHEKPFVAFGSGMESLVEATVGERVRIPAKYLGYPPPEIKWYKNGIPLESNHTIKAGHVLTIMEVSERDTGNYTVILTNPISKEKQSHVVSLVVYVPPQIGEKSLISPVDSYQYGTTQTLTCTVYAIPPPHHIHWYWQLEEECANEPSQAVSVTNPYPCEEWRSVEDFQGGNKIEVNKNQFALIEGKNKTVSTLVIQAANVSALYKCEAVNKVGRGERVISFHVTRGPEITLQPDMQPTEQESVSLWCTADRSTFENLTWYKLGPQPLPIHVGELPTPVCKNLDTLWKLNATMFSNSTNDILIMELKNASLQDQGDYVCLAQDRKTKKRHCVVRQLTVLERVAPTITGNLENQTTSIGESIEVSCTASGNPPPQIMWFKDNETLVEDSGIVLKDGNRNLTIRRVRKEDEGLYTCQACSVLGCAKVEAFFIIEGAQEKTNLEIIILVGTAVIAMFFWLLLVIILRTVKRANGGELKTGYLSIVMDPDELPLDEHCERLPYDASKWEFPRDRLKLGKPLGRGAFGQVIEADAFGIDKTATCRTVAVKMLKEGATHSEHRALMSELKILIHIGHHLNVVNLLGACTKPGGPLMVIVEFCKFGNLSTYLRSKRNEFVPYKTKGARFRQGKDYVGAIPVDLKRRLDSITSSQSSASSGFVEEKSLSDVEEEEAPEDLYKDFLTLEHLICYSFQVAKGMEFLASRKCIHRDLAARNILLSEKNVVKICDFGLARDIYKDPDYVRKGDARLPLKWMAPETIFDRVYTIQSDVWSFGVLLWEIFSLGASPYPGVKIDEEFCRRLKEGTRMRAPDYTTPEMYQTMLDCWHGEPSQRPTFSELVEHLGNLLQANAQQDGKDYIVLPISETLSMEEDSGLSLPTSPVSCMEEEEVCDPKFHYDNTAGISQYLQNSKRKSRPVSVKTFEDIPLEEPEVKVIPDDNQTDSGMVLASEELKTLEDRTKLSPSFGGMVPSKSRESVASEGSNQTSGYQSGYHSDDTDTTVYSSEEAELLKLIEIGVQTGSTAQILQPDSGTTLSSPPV

| SMILES | Safety Profile: Central nervous system [1] | Safety Profile: Liver/Bile [1] | Safety Profile: Musculoskeletal/bone [1] | Safety Profile: Renal [1] | Safety Profile: Heart [1] | further results |
| --- | --- | --- | --- | --- | --- | --- |
| Cc1nc(Nc2ncc(C(=O)Nc3c(C)cccc3Cl)s2)cc(N2CCN(CCO)CC2)n1 [Dasatinib] | R | R | R | R | – | – |
| C#Cc1cccc(Nc2ncnc3cc(OCCOC)c(OCCOC)cc23)c1 [Erlotinib] | R | R | – | – | – | Safety Profile: Blood/lymph system [1]: R |
| CS(=O)(=O)CCNCc1ccc(-c2ccc3ncnc(Nc4ccc(OCc5cccc(F)c5)c(Cl)c4)c3c2)o1 [Lapatinib] | R | – | – | – | R | – |
| Cc1cn(-c2cc(NC(=O)c3ccc(C)c(Nc4nccc(-c5cccnc5)n4)c3)cc(C(F)(F)F)c2)cn1 [Nilotinib] | R | – | R | R | – | Safety Profile: GI [1]: R; Safety Profile: Vascular [1]: R |
| Cc1ccc(Nc2nccc(N(C)c3ccc4c(C)n(C)nc4c3)n2)cc1S(N)(=O)=O [Pazopanib] | – | – | – | – | R | – |
| CNC(=O)c1cc(Oc2ccc(NC(=O)Nc3ccc(Cl)c(C(F)(F)F)c3)cc2)ccn1 [Sorafenib] | R | R | R | R | R | Safety Profile: GI [1]: R; Safety Profile: Lung airways [1]: R |
| CCN(CC)CCNC(=O)c1c(C)[nH]c(/C=C2\C(=O)Nc3ccc(F)cc32)c1C [Sunitinib] | R | R | – | – | R | – |
| N#CC1(c2ccc(NC(=O)c3cccnc3NCc3ccncc3)cc2)CCCC1 [rivoceranib mesylate] | – | – | – | – | – | maximum tolerated dose [2]: 850 mg; AUC0-∞ in Chinese and Japanese subjects compared to Caucasian subjects ([3]; healthy male): slightly higher; Cmax in Chinese and Japanese subjects compared to Caucasian subjects ([3]; healthy male): slightly higher; t1/2 ([3]; similar amongst Caucasian, Japanese and Chinese groups): 7.5 to 8 h |
| N#CC1(c2ccc(NC(=O)c3cccnc3NCc3ccncc3)cc2)CCCC1 [rivoceranib, N-[4-(1-cyanocyclopentyl)phenyl]-2-{[(pyridin-4-yl)methyl]amino} pyridine-3-carboxamide] | – | – | – | – | – | binding to VEGFR-2 [4]: selectively binds; side effects in animals ([5]; at efficacious doses): minimal side effects; efficacy in various tumor bearing animal models ([5]; nonclinical): efficacious; Food effects on the bioavailability [6]: minimal; Grade 3/4 adverse reactions that occurred in more than 2% of patients [7]: hypertension, HFS, proteinuria, fatigue, anorexia, and elevated aminotransferase; median overall survival (OS) compared to placebo [7]: prolonged; median progression-free survival (PFS) compared to placebo [7]: prolonged |
